Assay: Comment Code material properties: vapor pressure, ClogP, probability of ingredient color instability, odor detection threshold, melamine formaldehyde PMC headspace response ratio and leakage, liquid dish neat product liquid-air partition coefficient
Assay type: physicochemical
[1] = cell strings several class symbols together, each letter is one property class of L1
[2] = Table 1 materials, each letter of the code is one property class (vapor pressure, ClogP, color instability, odor detection threshold, PMC headspace ratio, PMC leakage, liquid dish liquid-air partition coefficient)
[3] = letter codes A-L: vapor pressure, ClogP, probability of ingredient color instability, odor detection threshold, PMC headspace response ratio, PMC leakage, liquid dish liquid-air partition coefficient, Table 1 materials with at least one MORV from 1 to 5

| SMILES | Comment Code [1] | Comment Code [2] | Comment Code [3] |
| --- | --- | --- | --- |
| C=CC1(C)Cc2occ(C)c2CC1C(=C)C (stereo not shown) [Material 488] | DHJK |  |  |
| O=C1CCCCCC=CCCCCCCCCO1 [Material 771] |  | DGJ |  |
| CC(C)(C)[C@@H]1CCCC[C@H]1O [Material 1071] | ACGIJKL |  |  |
| CC(C)CCOC(=O)C(C)C [Material 239] | ACEFGIJKL |  |  |
| C[C@H]1[C@@H]2C[C@H](C[C@@]13C=CC(=O)CC3)C2(C)C [Material 1143] | DEFHJK |  | DEFHJK |
| CC(=O)OC(C)CC(C)(C)c1ccccc1 (stereo not shown) [Material 1134] | BDFHJK |  |  |
| C=CCCC(=O)C1=CCCC2(CCCC2)C1 [Material 1038] | DGJK | DGJK |  |
| CC(C)(C)c1ccc2c(c1)OCC(=O)CO2 [Material 1085] |  | CEFHJ |  |
| CC(OC=O)C1CCCC(C)(C)C1 (stereo not shown) [Material 662] | ADEFHIJKL |  |  |
| CC1(C)CCC[C@@]2(C)[C@H]1CC[C@]13CO[C@](C)(CC[C@@H]12)O3 [Material 678] | DEFHJ | DEFHJ |  |
| CC(C)C1OCCC2(CC3CCC2(C)C3(C)C)O1 (stereo not shown) [Material 659] | BDEFHJK | DEFHJK |  |
| CC(C)=CCCC(C)c1ccc(C)cc1 (stereo not shown) [Material 713] |  | DEFHJK |  |
| COC(=O)c1ccccc1N=CC(C)Cc1ccc(C(C)(C)C)cc1 (stereo not shown) [Material 1121] |  |  | DFHJ |
| C=C(C)C1CC=C(C)C(OC(C)=O)C1 (stereo not shown) [Material 577] |  | BDHIJK |  |
| CC1=CC[C@H]2C[C@@H]1C2(C)C [Material 903] | ADEFGIJKL |  |  |
| C=C(C)[C@@H]1CC[C@@H](C)C(=O)C1 [Material 1081] | ACGIJKL |  |  |
| COc1c2ccoc2c(OC)c2oc(=O)ccc12 [Material 199] | CFGJ |  |  |
| Cc1ccnc2ccccc12 [Material 166] | BCEFHIKL |  |  |
| Cc1ccc(CC(C)C=O)cc1 (stereo not shown) [Material 742] |  | ACHJK |  |
| CC1=CC(=O)[C@@H]2C[C@H]1C2(C)C [Material 1119] | ACEFGIJKL |  |  |
| CC1C[C@H]2C3CCC(C3)[C@H]2CC1=O (stereo partly shown) [Material 980] |  | CEFGJKL |  |
| C/C=C/c1cc(OC)c(OC)cc1OC [Material 924] |  | BCFGJK |  |
| CC1=CC2=C(C(C)C)CC[C@@H](C)[C@H]2CC1 [Material 1147] |  |  | DEFHJKL |
| CC1=CCCC2(C)OC2CCC(C)=CCC1 (stereo not shown) [Material 568] |  | DFHJK |  |
| CC(C)(O)Cc1ccccc1 [Material 649] |  | BCEFGIK |  |
| CC12CCC(CC1)C(C)(C)S2 [Material 873] |  | ADEFHIJKL |  |
| OCCc1ccccc1 [Material 955] |  | BCEFGIK |  |
| COC(=O)Cc1ccccc1 [Material 97] | ACEFHIKL |  |  |

Further lines, results first:

| Comment Code [1] | Comment Code [2] | Comment Code [3] | SMILES |
| --- | --- | --- | --- |
|  | ADHKL |  | CCCCCCC=CC=O [Material 837] |
| BDEFGIJKL |  |  | CCC(C)(O)CCCC(C)C (stereo not shown) [Material 1054] |
|  | BDFGJK |  | CC(C)CCCC(C)CCCC(C)C=O (stereo not shown) [Material 741] |
|  | BDFHIJKL |  | CCCCCC1C(=O)CCC1C (stereo not shown) [Material 1053] |
|  | BDHJK |  | CCC(=O)C=CC1C(C)=CCCC1(C)C (stereo not shown) [Material 700] |
| ACHIJKL |  |  | CC(C)=CCCC(C)CC=O (stereo not shown) [Material 518] |
|  | DEFHJK |  | CC(=O)OC(C)CC/C=C(\C)CCC=C(C)C (stereo not shown) [Material 890] |
|  | DHJ |  | CCCCCC1CC(=O)C=C(C)C1C(=O)OCC (stereo not shown) [Material 591] |
|  | DHJK |  | C=CC(=C)CCC=C(C)CCC=C(C)C=O [Material 613] |
| DFHJ |  |  | CC(C)=CCC/C(C)=C/COC(=O)c1ccccc1 [Material 310] |
|  | ADHKL |  | CCCCC/C=C/CCC=O [Material 1073] |
|  | DFHJKL |  | CCCCCC=C1CCCC1=O [Material 850] |
| ADGIJKL |  |  | CC(C)CCCC(C)CC=O (stereo not shown) [Material 1051] |
|  | ADEFHJKL |  | C=CC=CC=CCCCCC [Material 876] |

Reference: patent publication US20160089464A1, “MALODOR REDUCTION COMPOSITIONS” (The Procter & Gamble Company, priority 2014, published 2016)
